# Values quoted from earlier work as cited in patent EP4454482A1, “PREPARATIONS COMPRISING OLEANOL GLYCOSIDES” (Analyticon Discovery GmbH, priority 2023, dated 2024).
# Settings: water (20° dH) at 20 °C; solid active agent
smiles,measurement,value
"Nc1nc2c(ncn2COCCO)c(=O)[nH]1 [Acyclovir, 2-Amino-1,9-dihydro-9-((2-hydroxyethoxy)methyl)-6H-Purin-6-one]",solubility in water,less than 5 g/L
